Like-named read-outs stand apart in the source and are kept apart here. One block for each compound: values may come before it.
Legend:
Mouse liver FPGS [1] = biological target: T1, Mouse liver FPGS (Mus musculus, UniProt P48760); details: relative to folic acid (1.0); cited from earlier work
T1 sequence (P48760 43-587): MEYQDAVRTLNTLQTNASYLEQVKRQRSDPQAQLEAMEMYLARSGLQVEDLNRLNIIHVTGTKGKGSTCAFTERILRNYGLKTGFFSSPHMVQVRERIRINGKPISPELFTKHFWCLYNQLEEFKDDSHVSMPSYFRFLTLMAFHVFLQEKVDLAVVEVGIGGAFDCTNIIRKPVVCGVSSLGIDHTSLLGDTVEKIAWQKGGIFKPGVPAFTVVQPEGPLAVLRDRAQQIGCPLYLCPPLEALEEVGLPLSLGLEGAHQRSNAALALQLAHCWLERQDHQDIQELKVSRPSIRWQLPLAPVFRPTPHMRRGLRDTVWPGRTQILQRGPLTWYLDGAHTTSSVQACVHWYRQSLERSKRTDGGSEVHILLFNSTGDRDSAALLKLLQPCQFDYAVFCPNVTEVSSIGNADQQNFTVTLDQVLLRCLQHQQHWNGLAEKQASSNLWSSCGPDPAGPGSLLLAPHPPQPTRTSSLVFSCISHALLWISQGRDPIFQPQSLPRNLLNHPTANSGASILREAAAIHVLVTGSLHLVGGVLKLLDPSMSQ

L1210 cells [2] = details: cited from earlier work; for IC50: 48 h, RPMI 1640 with 10% nondialyzed fetal calf serum
[3] = physiologic pH; cited from earlier work
[4] = compared with reduced folates and MTX; cited from earlier work
[5] = clinical trials; cited from earlier work
L1210 TS [6] = biological target: T2, L1210 TS (Mus musculus, UniProt P07607); details: cited from earlier work
T2 construct: purified TS from L1210 murine leukemic cells; endogenous in cells; host or cells: L1210 murine leukemic cells (enzyme purified from them)

L1210 TS [7] = biological target: T2, L1210 TS; test: Inhibition of purified TS from L1210 murine leukemic cells (3H release assay); type: biochemical
Method: ^b Inhibition of purified TS from L1210 cells was determined by the
^3 Hrelease assay method as described previously (Sikora et al.)

Mouse liver FPGS [8] = biological target: T1, Mouse liver FPGS; test: Substrate activity for partially purified FPGS from mouse liver; type: biochemical
Source text: ^c Substrate activity for partially purified FPGS from mouse liver wa
determined as described previously (Moran et al., Mol. Pharmacol. 27:156,
1985), with relative Vmax and k' values expressed in comparison with […]

L1210 cells [9] = test: Inhibition of growth of L1210 cells in culture; type: cell-based, murine; details: for IC50: Mus musculus, L1210
Method: ^d Cells were incubated in RPMI 1640 medium supplemented with 10%
nondialyzed fetal calf serum, and were counted after 48 h of drug
^e The IC50 for cells grown in the presence of 10 μM dThd
increased only to 0.84 μM.
It was therefore of interest to determine whether 2-aza analogues such as 10 also require both dThd and HX for complete protection from their growth inhibitory effect.

T2 sequence (P07607 whole entry): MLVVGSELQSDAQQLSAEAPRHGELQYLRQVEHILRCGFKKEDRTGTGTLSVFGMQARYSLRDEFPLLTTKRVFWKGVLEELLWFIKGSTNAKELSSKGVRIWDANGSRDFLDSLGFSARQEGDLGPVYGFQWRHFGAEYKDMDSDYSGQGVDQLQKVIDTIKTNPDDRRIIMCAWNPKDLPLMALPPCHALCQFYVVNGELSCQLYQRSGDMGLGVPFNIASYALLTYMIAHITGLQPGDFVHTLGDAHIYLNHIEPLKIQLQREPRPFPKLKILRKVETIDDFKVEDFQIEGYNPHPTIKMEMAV

SMILES: Nc1nc2ccc(CNc3ccc(C(=O)N[C@@H](CCC(=O)O)C(=O)O)cc3)cc2c(=O)[nH]1 [Compound 1, 5,8-Dideazafolic Acid]
Vmax (rel), Mouse liver FPGS (Mouse liver FPGS [1]): 1.3
k'(rel), Mouse liver FPGS (Mouse liver FPGS [1]): 29
IC50 (L1210 cells [2]): 2.7 µM

SMILES: C#CCN(Cc1ccc2nc(N)[nH]c(=O)c2c1)c1ccc(C(=O)N[C@@H](CCC(=O)O)C(=O)O)cc1 [Compound 2, N^10 -Propargyl-5,8-dideazafolic Acid]
Vmax (rel), Mouse liver FPGS (Mouse liver FPGS [1]): 0.88
k'(rel), Mouse liver FPGS (Mouse liver FPGS [1]): 2.3
reversal of inhibitory effect on growth of L1210 cells by thymidine plus folinic acid (L1210 cells [2]; 5 μM dThd and 5 μM folinic acid): restored to normal levels
reversal of inhibitory effect on growth of L1210 cells by thymidine (L1210 cells [2]; 10 μM thymidine alone): not fully reversed
reversal of inhibitory effect on growth of L1210 cells by thymidine plus hypoxanthine (L1210 cells [2]; 10 μM thymidine and 50 μM hypoxanthine): restored to normal levels
IC50 (L1210 cells [2]): 3.5 µM
solubility [3]: low solubility at physiologic pH
transport mechanism of cell entry [4]: distinct from that of reduced folates and MTX
toxicities in clinical use [5]: hepatic and renal toxicities

SMILES: O=C(O)CC[C@H](NC(=O)c1ccc(NCc2ccc3nc[nH]c(=O)c3c2)cc1)C(=O)O [Compound 3, 2-Desamino-5,8-dideazafolic Acid]
Ki (L1210 TS [6]; purified TS from L1210 cells, Table 1, read-out: Ki, L1210 TS): 2 µM
Ki (L1210 TS [6]; reported previously (Jackman et al.), read-out: Ki for TS inhibition): 2 µM
Vmax (rel), Mouse liver FPGS (Mouse liver FPGS [1]): 1.3
k'(rel), Mouse liver FPGS (Mouse liver FPGS [1]): 29
IC50 (L1210 cells [2]): 0.43 µM

increase in TS binding (L1210 TS [7]; 10 versus 2-desamino analogue 3): ca. sixfold
Ki (L1210 TS [7]; purified TS from L1210 cells, Table 1): 0.33 µM
k'(rel) lower than the k'(rel) of 1 or 3 (Mouse liver FPGS [8]; ratio 10 versus 1 or 3): 4.6 -fold
k'(rel) greater than that for CB3717 (Mouse liver FPGS [8]; ratio 10 versus CB3717): twofold
Vmax (rel), Mouse liver FPGS (Mouse liver FPGS [8]; relative to folic acid (1.0)): 1.6
k'(rel), Mouse liver FPGS (Mouse liver FPGS [8]; relative to folic acid (1.0), Km (app) divided into Vmax (rel)): 6.3
difference in IC50 with and without dThd (L1210 cells [9]; L1210 cells, dThd 0.84 versus 0.42 μM): twofold
IC50 (L1210 cells [9]; 10 μM dThd (footnote e), read-out: IC50, L1210 cells grown in the presence of dThd): 0.84 µM
IC50 (L1210 cells [9]; 48 h, RPMI 1640 with 10% nondialyzed fetal calf serum, without dThd, read-out: IC50, L1210 cells): 0.42 µM
SMILES: O=C(O)CC[C@H](NC(=O)c1ccc(NCc2ccc3nn[nH]c(=O)c3c2)cc1)C(=O)O [Compound 10, N-[4-(1,2,3-Benzotriazin-4(3H)-on-6-yl)methyl] aminobenzoyl-L-glutamic Acid]
difference in IC50 with and without dThd compared with 1, 2 and 3 (L1210 cells [9]; L1210 cells): comparable to that reported for 1 and 3, but much lower than that reported for 2
potency against cultured cells relative to 2-desamino-5,8-dideazafolate (L1210 cells [9]; L1210 cells, 10 versus 3): comparable

— patent US5234925A (Dana-Farber Cancer Institute, Inc., priority 1991, dated 1993)
